Test results published in patent publication US20220347130A1, “ANTI-OBESITY COMPOSITION CONTAINING COLCHICINE AND METFORMIN AS EFFECTIVE AGENTS” (priority 2021, published 2022).
Read-outs that look alike come from different tables or passages of the source.

Assays:
[1] = HFD obesity-induced rats; colchicine 50, 100, 200 μg/kg and/or metformin 200 mg/kg, oral once a day; FIG. 1
Procedure: Low fat diet (LFD: containing 10 kcal % fat) or high fat diet (HFD: containing 60 kcal % fat) feed was taken autonomously for 12 weeks in 6-week-old C57BL/6J sp. male rats. The obesity-induced rats due to the intake of the HFD feed additionally took the HFD feed for 12 weeks and were administered with colchicine of 50, 100, and 200 μg/kg or metformin of 200 mg/kg alone or co-administered with the colchicine and the metformin. A control drug, Xenical (orlistat ingredient) was administered alone at 60 mg/kg. All drugs were orally administered once a day.
Changes in body weight of obesity-induced rats were measured according to single administration of colchicine or metformin and co-administration of colchicine and metformin, which were illustrated in FIG. 1.

[2] = Epididymal fat weight of HFD obesity-induced rats; type: in vivo; settings: for weight of epididymal fat: colchicine 50, 100, 200 μg/kg and/or metformin 200 mg/kg, oral once a day, FIG. 3; for effect of reducing the fat of the obesity-induced rats: summary of the results
Procedure: Next, after the drugs were administered to the obesity-induced rats, the weights of epididymal fat were measured and the results thereof was illustrated in FIG. 3.

SREBP-1c = assay: Expression of obesity-related gene SREBP-1c in epididymal fat of obesity-induced rats; type: in vivo; settings: epididymal fat of HFD obesity-induced rats; colchicine 50, 100, 200 μg/kg and/or metformin 200 mg/kg, oral once a day; FIG. 4
Procedure: (§1) Meanwhile, after the drugs were administered to the obesity-induced rats, the expression of obesity-related genes SREBP-1c and FAS was measured, and the results thereof were illustrated in FIGS. 4A and 4B.

[3] = type: in vivo, rats; settings: oral once a day; for blood levels of AST and ALT (in words): HFD obesity-induced rats, colchicine 50, 100, 200 μg/kg and/or metformin 200 mg/kg, Table 1; for ALT / AST: HFD rats, 12 weeks, blood
Procedure: Finally, after the drugs were administered to the obesity-induced rats, changes in blood levels of aspartate aminotransferase (AST) and alanine transaminase (ALT) were measured and illustrated in Table 1 below.

[4] = tested on: FAS (fatty acid synthase); assay: Expression of obesity-related gene FAS in epididymal fat of obesity-induced rats; type: in vivo; settings: epididymal fat of HFD obesity-induced rats; colchicine 50, 100, 200 μg/kg and/or metformin 200 mg/kg, oral once a day; FIG. 4
Procedure: as §1

Compound	changes in body weight (increase in body weight induced by the HFD) [1]	weight of epididymal fat [2]	effect of reducing the fat of the obesity-induced rats [2]	expression of SREBP-1c (SREBP-1c)	blood levels of AST and ALT (in words) [3]	ALT ([3]; colchicine 50 μg/kg) [U/L]	AST ([3]; colchicine 50 μg/kg) [U/L]	ALT ([3]; colchicine 100 μg/kg) [U/L]	AST ([3]; colchicine 100 μg/kg) [U/L]	ALT ([3]; colchicine 200 μg/kg) [U/L]	AST ([3]; colchicine 200 μg/kg) [U/L]	expression of FAS [4]	ALT ([3]; metformin 200 mg/kg) [U/L]	AST ([3]; metformin 200 mg/kg) [U/L]	ALT ([3]; orlistat 60 mg/kg) [U/L]	AST ([3]; orlistat 60 mg/kg) [U/L]
COc1cc2c(c(OC)c1OC)-c1ccc(OC)c(=O)cc1[C@@H](NC(C)=O)CC2 [Colchicine, colchicine]	not changed	not changed	almost no effect	not changed	not changed	175.08 ± 2.78	372.26 ± 3.75	164.5 ± 2.11	346.91 ± 3.90	157.38 ± 3.3	309.24 ± 2.61	not changed				
CN(C)C(=N)N=C(N)N [Metformin, metformin]	slightly reduced	slightly reduced	a slight effect	slightly reduced	slightly reduced							slightly reduced	156.41 ± 2.77	284.37 ± 2.78		
CCCCCCCCCCC[C@@H](C[C@@H]1OC(=O)[C@H]1CCCCCC)OC(=O)[C@H](CC(C)C)NC=O [Orlistat, orlistat]															175.20 ± 3.11	203.31 ± 3.72
